# From patent US20040229934A1, “Method of reducing type 2 diabetes in high risk patients” (priority 2002, published 2004)
# Legend:
# [1] = test system: patients older than 55 years without known diabetes but with vascular disease; assay: Heart Outcomes Prevention Evaluation (HOPE) trial: new diagnosis of diabetes; assay type: in vivo; details: for New Diabetes With Glycated Hemoglobin ≧110% ULN, RR (95% CI) / New Diabetes With Oral Agents or Insulin and Glycated Hemoglobin ≧110% ULN, RR (95% CI) / New Diabetes With Oral Agents or Insulin, RR (95% CI) / New Diabetes, RR (95% CI): vs placebo
# Protocol: The design of the Heart Outcomes Prevention Evaluation (HOPE) trial has been described in detail in previous publications. Briefly, individuals who were 55 years or older with no evidence of left ventricular dysfunction or heart failure and who had evidence of vascular disease or who had diabetes and 1 other risk factor were eligible as long as they had no indication or contraindication to receiving an ACE-inhibitor. The study was conducted in […] in 19 countries from 1994 to 1999. All patients provided written informed consent. Of 10576 eligible patients who participated in a run-in period during which they received 2.5 mg ramipril once daily for 1 week followed by matching placebo for 10 to 14 days, 1035 (9.8%) were excluded from randomization (3.2% for side effects, 3.7% for lack of consent). […] This Example focuses primarily on the latter group of patients. Of these patients, 5720 were randomized to receive up to 10 mg of ramipril once per day or equivalent placebo. One hundred sixty-seven patients who were randomized to receive a low dose (2.5 mg/day) of ramipril as part of the Study to Evaluate Carotid Ultrasound changes with Ramipril and Vitamin E (SECURE). All randomized patients were also randomized to receive 400 IU of Vitamin E or placebo. Follow-up visits occurred at 1 month and 6 months after randomization and then every 6 months (mean follow-up of 4.5 years). At each visit, we documented whether the diagnosis of diabetes had been made since the last visit. The primary outcome of this analysis is a new diagnosis of diabetes recorded on the basis of self-report. […] Hemoglobin A1c (HbA1c) levels and medications used among those diagnosed as having diabetes were also recorded. The HbA1c, levels were determined locally. Values higher than 110% of the upper limit of normal for each laboratory were considered to be biochemical confirmation of diabetes. Survival curves utilizing the Kaplan Meier and log-rank procedures were used to describe and compare the results in the 2 treatment groups. Because of the factorial design, all analyses were stratified for randomization to vitamin E or placebo. Subgroup analyses were conducted using tests of interaction in the Cox regression model. Design, Setting and Participants. The randomized, controlled Heart Outcomes Prevention Evaluation trial of 5720 patients older than 55 years without known diabetes but with vascular disease who were followed up for a mean of 4.5 years. The study included 267 hospitals in 19 countries and was conducted between 1994 and 1999. Intervention. Patients were randomly assigned to receive ramipril, up to 10 mg/d (n=2837), or I Main Outcome Measure. Diagnosis of diabetes determined from self-report at follow-up visits every 6 months, compared between the 2 groups.
# patients with diabetes = assay: HOPE trial: HbA1c levels among the patients with diabetes; assay type: in vivo; details: serial annual recordings, first 2 years
# Protocol: The Study to Evaluate Carotid Ultrasound changes in patients treated with Ramipril and vitamin E (SECURE) in which fasting glucose increased more with placebo (15.8 mg/dL [0.41 mmols]) than with ramipril (9.6 mg/dL (0.25 mmols]; P=0.03). Among the patients with diabetes in the HOPE study, there was a significant reduction in HbA1c levels during serial annual recordings occurred during the first 2 years (absolute difference, 0.2%). In the UK Prospective Diabetes Study (UKPDS) and in the Captopril Prevention Project, patients randomized to receive ACE inhibitors had lower levels of HbA1c or less development of diabetes compared with those taking β-blockers or diuretics. However, it is not clear whether the differences in development of diabetes observed in these studies are due to a protective effect of ACE inhibitors or an adverse effect of β-blockers or diuretics.
# [2] = controlling for primary events and development of MA or ON
# [3] = ramipril up to 10 mg/d, n=2837, mean follow-up 4.5 years
molecule,measurement,setting,value
CCOC(=O)[C@H](CCc1ccccc1)N[C@@H](C)C(=O)N1[C@H](C(=O)O)C[C@@H]2CCC[C@@H]21 [ramipril],"RR, footnote | | (New Diabetes With Oral Agents or Insulin and Glycated Hemoglobin ≧110% ULN): new diabetes with patient taking glucose-lowering therapy",[1]; [2],"| |Controlling for primary events and development of MA or ON, new diabetes with patient taking glucose-lowering therapy had a 0.52 RR (95% CI, 35-0.78)."
same,"RR, footnote § (New Diabetes With Oral Agents or Insulin): new diabetes with patient taking glucose-lowering therapy",[1]; [2],"§Controlling for primary events and development of MA or ON, new diabetes with patient taking glucose-lowering therapy had a 0.58 RR (95% CI, 42-0.79)."
same,"RR, footnote † (New Diabetes): new diabetes with glycated hemoglobin 110%",[1]; [2],"†Controlling for primary events and development of MA or ON, new diabetes with glycated hemoglobin 110% had a 0.67 RR (95% CI, 0..52-0.86)."
same,"RR, footnote ‡ (New Diabetes With Glycated Hemoglobin ≧110% ULN): new diabetes with patient taking glucose-lowering therapy",[1]; [2],"‡Controlling for primary events and development of MA or ON, new diabetes with patient taking glucose-lowering therapy had a 0.58 RR (95% CI, 44-0.88)."
same,proportion diagnosed with diabetes receiving an oral glucose lowering agent or insulin,[1]; ramipril group,2.1%
same,proportion of patients diagnosed to have diabetes and a documented glycated hemoglobin of 110% or more above the upper limit of normal,[1]; ramipril group,1.8%
same,"proportion with all criteria (diabetes, glycated hemoglobin, glucose-lowering therapy)",[1]; ramipril group,1.3%
same,relative risk [RR] of new diagnosis of diabetes,[1]; ramipril group vs placebo group,0.66
same,individuals who reported a new diagnosis of diabetes (number),[1]; [3],102 and One hundred and two
same,individuals who reported a new diagnosis of diabetes (proportion),[1]; [3],3.6%
same,RR for diabetes in the subgroup who never took diuretics or β-blockers during the study,[1]; ramipril vs placebo,0.62
same,"RR, all criteria (both)",[1]; ramipril vs placebo,0.51
same,"RR, diabetes with oral glucose lowering agent or insulin (initiation of glucose-lowering therapy)",[1]; ramipril vs placebo,0.56
same,"RR, diagnosis of diabetes and glycated hemoglobin 110% or more",[1]; ramipril vs placebo,0.60
same,"New Diabetes With Glycated Hemoglobin ≧110% ULN, number of patients",[1]; stratum: no new MA or ON,42
same,"New Diabetes With Glycated Hemoglobin ≧110% ULN, proportion (in parentheses)",[1]; stratum: no new MA or ON,1.7
same,"New Diabetes With Oral Agents or Insulin and Glycated Hemoglobin ≧110% ULN, number of patients",[1]; stratum: no new MA or ON,30
same,"New Diabetes With Oral Agents or Insulin and Glycated Hemoglobin ≧110% ULN, proportion (in parentheses)",[1]; stratum: no new MA or ON,1.2
same,"New Diabetes With Oral Agents or Insulin, number of patients",[1]; stratum: no new MA or ON,45
same,"New Diabetes With Oral Agents or Insulin, proportion (in parentheses)",[1]; stratum: no new MA or ON,1.8
same,"New Diabetes, number of patients",[1]; stratum: no new MA or ON,82
same,"New Diabetes, proportion (in parentheses)",[1]; stratum: no new MA or ON,9.3
same,"New Diabetes With Glycated Hemoglobin ≧110% ULN, RR (95% CI)",[1]; stratum: no new MA or ON,0.66 (0.48-0.98)
same,"New Diabetes With Oral Agents or Insulin and Glycated Hemoglobin ≧110% ULN, RR (95% CI)",[1]; stratum: no new MA or ON,0.80 (0.38-0.84)
same,"New Diabetes With Oral Agents or Insulin, RR (95% CI)",[1]; stratum: no new MA or ON,0.56 (0.39-0.81)
same,"New Diabetes, RR (95% CI)",[1]; stratum: no new MA or ON,0.87 (0.51-0.89)
same,"New Diabetes With Glycated Hemoglobin ≧110% ULN, number of patients",[1]; stratum: no primary event,45
same,"New Diabetes With Glycated Hemoglobin ≧110% ULN, proportion (in parentheses)",[1]; stratum: no primary event,1.8
same,"New Diabetes With Oral Agents or Insulin and Glycated Hemoglobin ≧110% ULN, number of patients",[1]; stratum: no primary event,32
same,"New Diabetes With Oral Agents or Insulin and Glycated Hemoglobin ≧110% ULN, proportion (in parentheses)",[1]; stratum: no primary event,1.9
same,"New Diabetes With Oral Agents or Insulin, number of patients",[1]; stratum: no primary event,54
same,"New Diabetes With Oral Agents or Insulin, proportion (in parentheses)",[1]; stratum: no primary event,2.2
same,"New Diabetes, number of patients",[1]; stratum: no primary event,93
same,"New Diabetes, proportion (in parentheses)",[1]; stratum: no primary event,3.8
same,"New Diabetes With Glycated Hemoglobin ≧110% ULN, RR (95% CI)",[1]; stratum: no primary event,0.81 (0.42-0.89)
same,"New Diabetes With Oral Agents or Insulin and Glycated Hemoglobin ≧110% ULN, RR (95% CI)",[1]; stratum: no primary event,0.61 (0.33-.78)
same,"New Diabetes With Oral Agents or Insulin, RR (95% CI)",[1]; stratum: no primary event,0.58 (0.42-0.82)
same,"New Diabetes, RR (95% CI)",[1]; stratum: no primary event,0.69 (0.53-0.91)
same,"New Diabetes With Glycated Hemoglobin ≧110% ULN, number of patients",[1]; stratum: with new MA or ON,10
same,"New Diabetes With Glycated Hemoglobin ≧110% ULN, proportion (in parentheses)",[1]; stratum: with new MA or ON,2.8
same,"New Diabetes With Oral Agents or Insulin and Glycated Hemoglobin ≧110% ULN, number of patients",[1]; stratum: with new MA or ON,6
same,"New Diabetes With Oral Agents or Insulin and Glycated Hemoglobin ≧110% ULN, proportion (in parentheses)",[1]; stratum: with new MA or ON,1.7
same,"New Diabetes With Oral Agents or Insulin, number of patients",[1]; stratum: with new MA or ON,14
same,"New Diabetes With Oral Agents or Insulin, proportion (in parentheses)",[1]; stratum: with new MA or ON,3.9
same,"New Diabetes, number of patients",[1]; stratum: with new MA or ON,20
same,"New Diabetes, proportion (in parentheses)",[1]; stratum: with new MA or ON,5.6
same,"New Diabetes With Glycated Hemoglobin ≧110% ULN, RR (95% CI)",[1]; stratum: with new MA or ON,0.47 (0.23-0.98)
same,"New Diabetes With Oral Agents or Insulin and Glycated Hemoglobin ≧110% ULN, RR (95% CI)",[1]; stratum: with new MA or ON,0.32 (0.13-0.79)
same,"New Diabetes With Oral Agents or Insulin, RR (95% CI)",[1]; stratum: with new MA or ON,0.61 (0.32-1.16)
same,"New Diabetes, RR (95% CI)",[1]; stratum: with new MA or ON,0.85 (0.38-1.12)
same,"New Diabetes With Glycated Hemoglobin ≧110% ULN, number of patients",[1]; stratum: with primary event,7
same,"New Diabetes With Glycated Hemoglobin ≧110% ULN, proportion (in parentheses)",[1]; stratum: with primary event,1.9
same,"New Diabetes With Oral Agents or Insulin and Glycated Hemoglobin ≧110% ULN, number of patients",[1]; stratum: with primary event,4
same,"New Diabetes With Oral Agents or Insulin and Glycated Hemoglobin ≧110% ULN, proportion (in parentheses)",[1]; stratum: with primary event,1.1
same,"New Diabetes With Oral Agents or Insulin, number of patients",[1]; stratum: with primary event,5
same,"New Diabetes With Oral Agents or Insulin, proportion (in parentheses)",[1]; stratum: with primary event,1.3
same,"New Diabetes, number of patients",[1]; stratum: with primary event,9
same,"New Diabetes, proportion (in parentheses)",[1]; stratum: with primary event,2.4
same,"New Diabetes With Glycated Hemoglobin ≧110% ULN, RR (95% CI)",[1]; stratum: with primary event,0.59 (0.24-1.43)
same,"New Diabetes With Oral Agents or Insulin and Glycated Hemoglobin ≧110% ULN, RR (95% CI)",[1]; stratum: with primary event,0.64 (0.17-1.72)
same,"New Diabetes With Oral Agents or Insulin, RR (95% CI)",[1]; stratum: with primary event,0.42 (0.15-1.14)
same,"New Diabetes, RR (95% CI)",[1]; stratum: with primary event,0.48 (0.21-0.98)
same,results among subgroups with different risk factors for developing diabetes (FIG. 2),"[1]; waist to hip ratio, BMI, hypertension history, β-blockers or diuretics at randomization",consistent
same,"reduction in HbA1c levels, absolute difference",patients with diabetes,0.2%
Vitamin E,effect on diabetes compared with placebo,"[1]; 400 IU of Vitamin E, factorial design",did not differ
